Measurements published in US5210077A, “Antibodies to cytokinins having a glycosylated isoprenoid side chain and immunoassay methods” (The United States of America as represented by the …, priority 1989, dated 1993).
pIC50: −log10 of the molar value. Entries after “also recorded” stand apart in the source; their conditions may differ. Read-outs that look alike come from different tables or passages of the source.

Assays:
[1] = test system: monoclonal antibody ATCC HB 9658; assay: Competition ELISA with HRP conjugate of 9-(2-carboxyethyl)zeatin-O-β-D-glucopyranoside and monoclonal antibody ATCC HB 9658; assay type: binding, mouse; details: for pIC50: read-out: I50
Description: Competition ELISA using cytokinin conjugates of HRP was performed using polystyrene assay plates coated with mouse monoclonal antibodies specific for cytokinins. […] Immediately before use, assay plates were coated with 1 μg/mL of monoclonal IgG in BSA-PBS-Tween. Samples were mixed with an appropriate concentration of cytokinin-HRP conjugate and applied to assay wells in replicate (100 μL/well). After 1 h, wells were drained, washed, and rinsed. Bound conjugate was detected with ABTS substrate solution and quantified by determining absorbance at 415 nm. Calculations were performed as follows. Assay data was fit to a logistic model. Asymptotic values were determined by inspection of the assay curves, and other coefficients were determined by linear regression. […] Relative affinities are expressed using E-zeatin riboside or E-zeatin-O-β-D-glucopyranoside as standards.

[2] = test system: monoclonal antibody ATCC HB 9658; assay: Inhibition ELISA, specificity of monoclonal antibody ATCC HB 9658; assay type: binding, mouse; details: for Relative I50 (relative to E-zeatin-O-β-D-glucopyranoside) / pIC50: antibody ATCC HB 9658; for pIC50: read-out: I50
Description: (§1) Antibodies were screened and further analyzed by solid-phase enzyme immunoassays as follows. Polyvinylchloride assay plates (Costar, Cambridge, MA), were coated with appropriate serum albumin conjugate (made with the O-glucoside derivative or the oxidized zeatin riboside, 10 μg/mL in PBS, 50 μL/well) for 4 h at room temperature or overnight at 4°. Plates were then washed with PBS containing 0.05% "Tween"-20 (PBS-Tween). Remaining sites were blocked by incubation for 1 h with 100 μL/well of 1% BSA in PBS-"Tween" solution (BSA-PBS-"Tween"). Plates were then rewashed and stored for up to 3 weeks at 4° in PBS containing sodium azide.
(§2) Direct binding (titration) and inhibition assays were performed with antibodies dissolved in BSA-PBS-"Tween", a diluent selected to minimize nonspecific interactions with the solid phase, and to suppress binding to the solid phase by antibodies specific for serum albumin.
Inhibition assay format was used to assess antibody specificity. […] In both formats, samples (50 μL/well) were generally applied to plates in triplicate and were incubated 1 h, with shaking. Plates were emptied, washed, rinsed with distilled water, and drained. HRP-labeled rabbit anti-mouse IgG (Zymed Laboratories, South San Francisco, CA) was added at an appropriate dilution (50 μL/well) and incubated for 1 h with shaking. The plates were then washed as before, and bound HRP detected by addition of 50 μL/well of substrate (1 mM ABTS and 6.7 mM H2 O2 in 60 mM sodium citrate buffer, pH 4.2). The absorbance was determined at 415 nm with a microplate reader (Model 308, Bio-Tek, Winooski, VT), generally after 15 min. In some cases, reactions were terminated by addition of 50 μL/well of 10% sodium dodecylsulfate.
Calculations were performed as follows. Assay data was fit to a logistic model. Asymptotic values were determined by inspection of the assay curves, and other coefficients were determined by linear regression. […] Relative affinities are expressed using E-zeatin riboside or E-zeatin-O-β-D-glucopyranoside as standards.

[3] = test system: mouse polyclonal antibodies; assay: Inhibition ELISA for the mouse polyclonal antibodies; assay type: binding; details: for binding by the mouse polyclonal antibody (in words): inhibition ELISA; for Antibody Bound (%): inhibition ELISA with hapten, None = 100
Description: Mouse antibodies were elicited in BALB/c mice by two intraperitoneal inoculations at 3-week intervals with the bovine serum albumin conjugate of E-9-(2-carboxyethyl)zeatin-O-β-D-glucopyranoside emulsified in complete Freund's adjuvant. The dosage was 50-80 μg of conjugate in 0.1-0.2 mL. The mice were bled 1 week after the second injection, and sera were obtained, and tested for antibody.
as §1, §2
Inhibition assay format was used to assess antibody specificity. Antibody at an appropriate dilution determined by titration to give between 50 and 100% of maximal binding was mixed with hapten solution and preincubated for 1 h at room temperature prior to application to the coated wells. In both formats, samples (50 μL/well) were generally applied to plates in triplicate and were incubated 1 h, with shaking. Plates were emptied, washed, rinsed with distilled water, and drained. HRP-labeled rabbit anti-mouse IgG (Zymed Laboratories, South San Francisco, CA) was added at an appropriate dilution (50 μL/well) and incubated for 1 h with shaking. The plates were then washed as before, and bound HRP detected by addition of 50 μL/well of substrate (1 mM ABTS and 6.7 mM H2 O2 in 60 mM sodium citrate buffer, pH 4.2). The absorbance was determined at 415 nm with a microplate reader (Model 308, Bio-Tek, Winooski, VT), generally after 15 min. In some cases, reactions were terminated by addition of 50 μL/well of 10% sodium dodecylsulfate.

Row | SMILES | Relative I50 (relative to E-zeatin-O-β-D-glucopyranoside) [1] | pIC50 [1] | Relative I50 (relative to E-zeatin-O-β-D-glucopyranoside) ([2]; inhibition ELISA) | pIC50 ([2]; inhibition ELISA) | binding by antibody of clone 240 / ATCC HB 9658 (in words) [2] | binding by the mouse polyclonal antibody (in words) [3] | Antibody Bound (%) [3] [%] | binding reduced relative to zeatin-O-β-D-glucopyranoside ([2]; inhibition ELISA, FIG. 4) | binding by antibody of clone 240 / ATCC HB 9658 (in words) ([2]; listed as E-zeatin-O-β-D-glucopyranoside) | binding by antibody of clone 240 / ATCC HB 9658 (in words) ([2]; listed as zeatin-O-β-D-glucopyranoside)
1 | CC(CO)CCNc1ncnc2nc[nH]c12 (racemic) [Dihydrozeatin, (RS)-dihydrozeatin] | > 4800 | < 4.00 | > 11000 | < 3.00 |  |  |  |  |  | 
2 | C/C(=C\CNc1ncnc2c1ncn2[C@@H]1O[C@H](CO)[C@@H](O)[C@H]1O)CO [9-ribosylzeatin] |  |  |  |  | do not bind |  |  |  |  | 
3 | C/C(=C\CNc1ncnc2c1ncn2CCC(=O)O)CO[C@@H]1O[C@H](CO)[C@@H](O)[C@H](O)[C@H]1O [Carboxyethylzeatin-O-β-D-glucopyranoside, E-9-(2-carboxyethyl)zeatin-O-β-D-glucopyranoside] |  |  |  |  |  | binds | 76 ± 1 |  |  | 
4 | C/C(=C\CNc1ncnc2[nH]cnc12)CO [E-Zeatin, E-zeatin] | > 4800 | < 4.00 | > 1100 | < 4.00 | does not bind significantly; also recorded: do not bind | do not bind | 99 ± 3 | at least 10,000 fold |  | 
5 | C/C(=C\CNc1ncnc2c1ncn2[C@@H]1O[C@H](CO)[C@@H](O)[C@H](O)[C@H]1O)CO [E-Zeatin-9-β-D-glucopyranoside] | > 48000 | < 3.00 | > 1100 | < 4.00 | do not bind |  |  |  |  | 
6 | CC(=CCNc1ncnc2[nH]cnc12)COC1OC(CO)C(O)C(O)C1O [E-Zeatin-O-β-D-glucopyranoside, E-zeatin-O-β-D-glucopyranoside] | 1 | 7.68 | 1 | 7.06 |  |  |  |  | bind | binds
7 | CC(C)=CCNc1ncnc2nc[nH]c12 [Isopentenyladenine, N^6-2-isopentenyladenine] | > 4800 | < 4.00 | > 11000 | < 3.00 |  |  |  |  |  | 
8 | C/C(=C\CNc1ncnc2c1ncn2[C@@H]1O[C@H](CO)[C@@H](O)[C@H]1O)CO[C@@H]1O[C@H](CO)[C@@H](O)[C@H](O)[C@H]1O [O-β-D-Glucopyranosyl-E-zeatin-9-riboside] | 1.7 | 7.46 | 3.4 | 6.52 |  |  |  |  |  | 
9 | C/C(=C\CN1C(=O)c2ccccc2C1=O)CO[C@@H]1O[C@H](CO)[C@@H](O)[C@H](O)[C@H]1O [PBG, E-2-methyl-4-phthalimidobut-2-enyl-β-D-glucopyranoside] | 23 | 6.31 | 14 | 5.92 |  |  |  |  |  | 
10 | CO[C@@H]1O[C@H](CO)[C@@H](O)[C@H](O)[C@H]1O [β-Methylglucoside, β-methyl-D-glucopyranoside] | > 48000 | < 3.00 |  |  |  |  |  |  |  | 
